Literature values in US5990112A, “Inhibitors of metalloproteases pharmaceutical compositions comprising same and methods of their use” (Affymax Technologies N.V., priority 1996, dated 1999).

Key:
[1] = target: rabbit bone proteoglycanase; conditions: Delaisse et al. 1985
[2] = target: human rheumatoid synovial collagenase

IC50 [1]: 500 nM | IC50 [2]: < 8000 nM
SMILES: CNC(=O)[C@H](Cc1ccc(OC)cc1)NC(=O)[C@H](CC(C)C)NC(CCNC(=O)OCc1ccccc1)C(=O)O (stereo partly drawn) [N-[3-(benzyloxy-carbonyl)amino-1-carboxy-n-propyl]-L-leucyl-O-methyl-L-tyrosine, N-methylamide]
